Biological target: T1, Protein Tyrosine Phosphatase 1B (PTP1B) (Homo sapiens, UniProt P18031)
T1 construct: gene PTPN1; residues 1-322, C-terminal deletion
T1 sequence (P18031 1-322): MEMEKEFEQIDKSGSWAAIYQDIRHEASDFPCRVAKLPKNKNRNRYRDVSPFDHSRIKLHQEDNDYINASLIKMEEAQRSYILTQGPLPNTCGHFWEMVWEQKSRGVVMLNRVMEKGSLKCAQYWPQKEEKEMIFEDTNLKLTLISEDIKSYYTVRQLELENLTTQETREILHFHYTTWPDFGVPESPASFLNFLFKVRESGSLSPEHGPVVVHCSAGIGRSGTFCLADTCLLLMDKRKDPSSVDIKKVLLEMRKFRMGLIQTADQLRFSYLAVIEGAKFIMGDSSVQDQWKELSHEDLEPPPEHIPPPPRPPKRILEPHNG
Assay: Malachite green phosphate release assay with IR5 phosphopeptide on recombinant human PTP1B
Format: biochemical

Compound	Malachite green phosphate release assay with IR5 phosphopeptide on recombinant h
CC(C)CCC[C@@H](C)[C@H]1CCC2C3C[C@@H](O)C4=C[C@@H](NCCCNCCCCNCCCN)CC[C@]4(C)C3CC[C@@]21C (some centres unmarked) [NV669]	we found that NV669 blocked significantly in vitro PTP1B activity in a dose- and time-dependent manner
CC(C)CCC[C@@H](C)[C@H]1CC[C@H]2[C@@H]3C[C@@H](NCCCNCCCCNCCCN)[C@H]4C[C@@H](O)CC[C@]4(C)[C@H]3CC[C@]12C [claramine]	Like claramine (a PTP1B inhibitor used here as positive control), we found that NV669 blocked significantly in vitro PTP1B activity

— article PMC6877102, “A squalamine derivative, NV669, as a novel PTP1B inhibitor: in vitro and in vivo effects on pancreatic and hepatic tumor growth” (Oncotarget, 2019)
